Data taken from patent EP0031801A2, “6-Substituted 4-(2',3'-dichlorophenyl)-2-methyl-1,4-dihydropyridine-3,5-dicarboxylic acid diesters having hypotensive properties as well as process for their preparation and pharmaceutical preparations containing same” (priority 1979, dated 1981).

Legend:
[1] = tested on: spontaneously hypertensive rats (SHR) of the Okamoto strain; experiment: Antihypertensive effect in conscious, unrestrained spontaneously hypertensive rats, oral dosing; type: in vivo; conditions: Rattus norvegicus; dose giving 20 per cent reduction of mean arterial BP, by interpolation; oral intubation, cumulated doses at 2 hour intervals, suspended in methocel solution
Procedure: The antihypertensive effect of the compounds was tested in conscious, unrestrained spontaneously hypertensive rats (SHR) of the Okamoto strain. The animals had been prepared by prior implantation of indwelling catheters in the abdominal aorta via the femoral artery. Mean arterial blood pressure (MABP) and heart rate were continuously monitored. After a 2 hour control period the compound under study was administered by oral intubation at 2 hour intervals, suspended in methocel solution (5 ml/kg bodyweight). The cumulated doses were […] bodyweight. The antihypertensive response, i.e. the BP reduction to each dose, was expressed as a percentage of the initial control BP level and plotted against the dose on a logarithmic scale. The dose which would give 20 per cent BP reduction was then determined by interpolation.

[2] = tested on: isolated portal vein preparation / paced isolated papillary heart muscle preparation; experiment: Specificity towards smooth muscle relaxation: isolated portal vein versus paced papillary heart muscle in an organ bath; parameters: species or system Wistar rats; conditions: "separation" value: averaged difference of -log ED50 portal vein (vasodilatation) and -log ED50 papillary muscle (myocardial depression), transformed into numeric format
Procedure: The specificity towards smooth muscle relaxation was examined as follows: The isolated portal vein preparation of Wistar rats was mounted in an organ bath together with a paced isolated papillary heart muscle preparation of the same animal. The integrated contractile activity of the portal vein smooth muscle and the peak force amplitude of the papillary, myocardial, preparation were recorded. The respective activities during a 30 min control period were set as 100 per cent and the ensuing activities under the influence of an agent under study were expressed as a percentage thereof. The agent was administered at 10 min intervals and the potency for vasodilatation(-log ED50 of-portal vein) and that of myocardial depression (-log ED50 of papillary muscle) were determined by interpolation from the concentration-effect relationships determined in each experiment. A "separation" value was determined for each compound by averaging the differences of the -log ED50 values for vasodilatation and myocardial depression, respectively, obtained in the experiments. This logarithmic separation value was transformed into numeric format and entered into table 2.

`CCOC(=O)C1=C(C(C)C)NC(C)=C(C(=O)OC)C1c1cccc(Cl)c1Cl` (stereo not drawn) [Example 1, 2-isopropyl-4-(2,3-dichlorophenyl)-6-methyl-1,4-dihydropyridine-3,5-dicarboxylic acid-3-ethylester-5-methylester] showed an ED20 [1] of 2.5 µmol/kg and a Ratio heart vasc. [2] of 98.
Compound `CCOC(=O)C1=C(COC)NC(C)=C(C(=O)OC)C1c1cccc(Cl)c1Cl` (stereo not drawn) [Example 2, 2-methoxymethyl-4-(2,3-dichlorophenyl)-6-methyl-1,4-dihydropyridine-3,5-dicarboxylic acid-3-ethylester-5-methylester] has an ED20 [1] of 2 µmol/kg and a Ratio heart vasc. [2] of 158.
Work on `COC(=O)C1=C(C)NC(C)=C(C(=O)OC)C1c1ccccc1[N+](=O)[O-]` [Nifedipin, 2,6-dimethyl-4-(2-nitrophenyl)-1,4-dihydropyridine-3,5-dicarboxylic acid-3,5-dimethylester, reference compound] yielded an ED20 [1] of 5 µmol/kg and a Ratio heart vasc. [2] of 15.
